Results as given in patent US4530930A, “Antimicrobial 1-ethyl-6,8-difluoro-1,4-dihydro-7-(1-imidazolyl)-4-oxoquinoline-3-carbo xylic acid derivatives” (Kanebo, Ltd., priority 1982, dated 1985).
Values after ≈ are worked out from the molar mass of the structure shown. “Also recorded” adds a separate entry of the source. Like-named read-outs stand apart in the source and are kept apart here.

Assays:
[1] = test system: Serratia marcescens IAM 1184; test: MIC; assay type: cell-based; conditions: IAM1184, gram negative
Experimental: (§1) In accordance with the method as disclosed in Chemotherapy, Vol. 29, pages 76-79 (1981), MIC (μg/ml) of each test compound was measured.

[2] = test system: Salmonella paratyphi 1015; test: MIC; assay type: cell-based; conditions: Salmonella enterica
Experimental: as §1

[3] = test system: Bacillus subtilis ATCC 6633; test: MIC; assay type: cell-based; conditions: ATCC6633, gram positive
Experimental: as §1

[4] = test system: Escherichia coli NIHJ JC-2; test: MIC; assay type: cell-based; conditions: NIHJJC2, gram negative
Experimental: as §1

[5] = test system: Staphylococcus epidermidis; test: MIC; assay type: cell-based; conditions: gram positive
Experimental: as §1

[6] = test system: Klebsiella pneumoniae PCI-602; test: MIC; assay type: cell-based; conditions: PCI602, gram negative
Experimental: as §1

[7] = test system: Staphylococcus aureus FDA 209P JC-1; test: MIC; assay type: cell-based; conditions: FDA209P, gram positive
Experimental: as §1

[8] = test system: Pseudomonas aeruginosa IFO 3445; test: MIC; assay type: cell-based
Experimental: as §1

Proteus Vulgaris HX-19 = test: MIC; assay type: cell-based; conditions: gram negative
Experimental: as §1

in vivo [9] = conditions: mouse, in vivo, po
Experimental: (§2) The acute toxicities in oral administration and intravenous injection of the test compounds were tested as follows:
In oral administration: To ddY-strain male mice (weighing 20-25 g, five per group) was administered orally a suspension of each test compound in a 0.5% sodium carboxymethylcellulose. […] J. Biometric Soc., 8, 249 (1959)].

[10] = Bioavailability in oral administration in mice; assay type: in vivo, ddY-strain male mice; conditions: mouse, serum, mice, oral 50 mg/kg; for concentration at 0.5 h: after 30 min.; for concentration at 0.5 h / concentration at 1 h / concentration at 2 h / concentration at 4 h: read-out: Concentration in serum; for concentration at 1 h: after 60 min.; for concentration at 2 h: after 120 min.; for concentration at 4 h: after 240 min.; for AUC at 4 h: 1-4 hrs., read-out: AUC
Experimental: Each of the test compounds was suspended in a 0.5% sodium carboxymethylcellulose to prepare a suspension having a concentration of 5 mg/ml of the compound.
ddY-strain male mice (5 week old, weighing 22 to 25 g, three per group) were used. The suspension was orally administered to mice fasted for 16 hours. The dose of the test compound was adjusted to 50 mg/kg of body weight of animal. 30, 60, 120, and 240 minutes after the administration of the test compound, blood was taken out from each mouse, and the blood sample thus obtained was centrifuged at 3,000 rpm for 20 minutes to obtain a serum sample.

[11] = Bioavailability in oral administration in rats; assay type: in vivo, Wistar-strain male rats; set-up: AUC at 4 h: concentration or dose not given beside the values; conditions: rat, plasma, rats, oral; for concentration at 0.5 h: after 30 min.; for concentration at 0.5 h / concentration at 1 h / concentration at 2 h / concentration at 4 h: read-out: Concentration in plasma; for concentration at 1 h: after 60 min.; for concentration at 2 h: after 120 min.; for concentration at 4 h: after 240 min.; for AUC at 4 h: 1-4 hrs., read-out: AUC
Experimental: Each of the test compounds was suspended in a 0.5% sodium carboxymethylcellulose to prepare a suspension having a concentration of 5 mg/ml of the test compound.
Wistar-strain male rats (weighing 160 g ±20 g, three per group) were used. The suspension was orally administered to rats fasted 16 hours. 30, 60, 120, and 240 minutes after the administration of the test compound, blood was taken out from the rats. The blood was centrifuged at 3,000 rpm for 20 minutes to obtain a plasma sample. In the same manner as described in Experiment 2, the concentration (μg/ml) of test compound in plasma and also AUC (μg.hr/ml) were measured.

in vivo [12] = assay type: in vivo; conditions: mouse, in vivo, iv
Experimental: as §2
(§3) In intravenous administration: Each of the test compounds was dissolved in 1N aqueous sodium hydroxide solution and thereto was added a phosphoric acid-saline buffer (pH 7.2) to prepare a test solution. The test solution was intravenously injected to ddy-strain male mice (weighing 20-25 g, five per group). One week after the administration of the test solution, the LD50 was determined in accordance with Weil method.

Microorganisms = test: In vitro anti-microbial activity (MIC), overall; assay type: cell-based; conditions: Experiment 1
Experimental: as §1

ddY-strain male mice [13] = conditions: p.o.; data reported at Nippon Kagakuryohogakkai 28th Meeting (1980, Tokyo); 10080 min; cited from earlier work
ddY-strain male mice [14] = conditions: i.v.; data reported at Nippon Kagakuryohogakkai 28th Meeting (1980, Tokyo); 10080 min; cited from earlier work
ddY-strain male mice [15] = test: in vivo; assay type: in vivo; conditions: mouse, in vivo, iv, 10080 min
Experimental: as §2, §3

[16] = IFO3445, gram negative, read-out: MIC

Row | SMILES | MIC [1] | MIC [2] | MIC [3] | MIC [4] | MIC [5] | MIC [6] | MIC [7] | MIC [8, 16] | MIC (Proteus Vulgaris HX-19) | LD50 at 168 h (in vivo [9]) | concentration at 0.5 h [10] | concentration at 1 h [10] | concentration at 2 h [10] | concentration at 4 h [10] | AUC at 4 h [10] | concentration at 0.5 h [11] | concentration at 1 h [11] | concentration at 2 h [11] | concentration at 4 h [11] | AUC at 4 h [11] | other results
1 | CCn1cc(C(=O)O)c(=O)c2cc(F)c(N3CCN(C)CC3)c(F)c21 [D, 1-ethyl-6,8-difluoro-1,4-dihydro-7-[1-(4-methylpiperazinyl)]-4-oxoquinoline-3-carboxylic acid] | 0.78 µg/mL (≈ 2.22 µM) | 0.1 µg/mL (≈ 0.285 µM) | 0.2 µg/mL (≈ 0.569 µM) | 0.2 µg/mL (≈ 0.569 µM) | 1.56 µg/mL (≈ 4.44 µM) | 0.1 µg/mL (≈ 0.285 µM) | 0.78 µg/mL (≈ 2.22 µM) | 1.56 µg/mL (≈ 4.44 µM) | 0.05 µg/mL (≈ 0.142 µM) | 536 mg/kg | 14400 ± 800 ng/mL | 11500 ± 900 ng/mL | 6700 ± 600 ng/mL | 3400 ± 400 ng/mL | 29300 ng·h/mL | 22600 ± 4500 ng/mL | 24000 ± 2300 ng/mL | 14600 ± 1100 ng/mL | 9300 ± 100 ng/mL | 60400 ng·h/mL | LD50 at 168 h (in vivo [12]): 196 mg/kg
2 | CCn1cc(C(=O)O)c(=O)c2cnc(-n3ccnc3)cc21 [E, 1-ethyl-1,4-dihydro-7-(1-imidazolyl)-4-oxo-1,6-naphthylidine-3-carboxylic acid] | 100 µg/mL (≈ 352 µM) | 12.5 µg/mL (≈ 44 µM) | 100 µg/mL (≈ 352 µM) | > 100 µg/mL | > 100 µg/mL | 25 µg/mL (≈ 87.9 µM) | > 100 µg/mL | > 100 µg/mL | 3.12 µg/mL (≈ 11 µM) |  |  |  |  |  |  |  |  |  |  |  | anti-microbial activities in vitro (MIC), in words (Microorganisms): less antimicrobial activities; also recorded: far less activities
3 | CCn1cc(C(=O)O)c(=O)c2cc(F)c(N3CCNCC3)cc21 [Compound A, 1-ethyl-1,4-dihydro-6-fluoro-4-oxo-7-(1-piperazinyl)quinoline-3-carboxylicacid] | 0.39 µg/mL (≈ 1.22 µM) | 0.1 µg/mL (≈ 0.313 µM) | 0.39 µg/mL (≈ 1.22 µM) | 0.39 µg/mL (≈ 1.22 µM) | 3.13 µg/mL (≈ 9.8 µM) | 0.1 µg/mL (≈ 0.313 µM) | 0.39 µg/mL (≈ 1.22 µM) |  | 0.1 µg/mL (≈ 0.313 µM) |  | 1050 ± 240 ng/mL | 690 ± 70 ng/mL | 400 ± 50 ng/mL | 360 ± 30 ng/mL | 2000 ng·h/mL | 1810 ± 140 ng/mL | 1190 ± 20 ng/mL | 630 ± 110 ng/mL | 250 ± 10 ng/mL | 2990 ng·h/mL | LD50 (ddY-strain male mice [13]): > 4,000 mg/kg; MIC ([8]; IFO3445): 1.56 µg/mL (≈ 4.89 µM); LD50 (ddY-strain male mice [14]): 220 mg/kg
4 | CCn1cc(C(=O)O)c(=O)c2cc(F)c(-n3cnc(C)c3)c(F)c21 [I-b, 1-Ethyl-6,8-difluoro-1,4-dihydro-7-[1-(4-methylimidazolyl)]-4-oxoquinoline-3-carboxylic acid] | 3.13 µg/mL (≈ 9.39 µM) | 0.1 µg/mL (≈ 0.3 µM) | 0.05 µg/mL (≈ 0.15 µM) | 0.39 µg/mL (≈ 1.17 µM) | 3.13 µg/mL (≈ 9.39 µM) | 0.1 µg/mL (≈ 0.3 µM) | 0.78 µg/mL (≈ 2.34 µM) | 6.25 µg/mL (≈ 18.8 µM) | 0.025 µg/mL (≈ 0.075 µM) | > 4000 mg/kg | 49200 ± 2500 ng/mL | 29400 ± 2500 ng/mL | 10000 ± 800 ng/mL | 6300 ± 1100 ng/mL | 67900 ng·h/mL | 58700 ± 5300 ng/mL | 62900 ± 6000 ng/mL | 52000 ± 4000 ng/mL | 33500 ± 4900 ng/mL | 188000 ng·h/mL | LD50 (ddY-strain male mice [15]): 593 mg/kg
